Patent US20230190723A1 (MEREO BIOPHARMA 4 LIMITED, priority 2020, published 2023)
Blank lines part the entries; values can stand above or below the molecule they belong to.

Assays:
[1] = target: T1, neutrophil elastase (Homo sapiens, UniProt P08246); assay: proteinase/anti-proteinase imbalance model (fMLP-stimulated isolated neutrophils with fibrinogen, NE activity footprint Aα-Val360); type: cell-based; details: for NE activity remaining, % of untreated (Aα-Val360): no inhibitor = 100%
T1 construct: Neutrophils from healthy young volunteers were isolated; endogenous in cells; host or cells: neutrophils isolated from blood of healthy young volunteers, stimulated with fMLP in the presence of fibrinogen
T1 sequence (P08246 30-267): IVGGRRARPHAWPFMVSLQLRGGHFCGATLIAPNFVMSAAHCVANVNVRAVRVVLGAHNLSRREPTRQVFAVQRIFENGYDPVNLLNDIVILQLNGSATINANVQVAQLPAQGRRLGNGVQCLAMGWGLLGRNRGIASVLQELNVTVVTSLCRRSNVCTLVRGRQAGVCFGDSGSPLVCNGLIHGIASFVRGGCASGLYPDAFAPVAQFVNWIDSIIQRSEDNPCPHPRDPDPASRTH

[2] = target: T2, NE (Homo sapiens, UniProt P08246); assay: enzyme kinetics: SlaaapN cleavage by NE in the presence of inhibitor; type: biochemical
T2 construct: purchased Athens Research and Technology, US
T2 sequence (P08246 30-267): T1 sequence (P08246 30-267)
Method: Results were determined computationally using Prism software.

[3] = tested on: neutrophils; assay: validation of the Aα-Val360 assay with stimulated neutrophils; type: cell-based, human; details: 15 minutes
Method: Baseline corrected Aα-Val^360 levels following stimulation of neutrophils at 2.5 million/ml with Cal at 2.4/2.1/1.8/1.5/1.2/0.9/0.6/0.3 μM with fibrinogen (550 nM) for 60 minutes; n=3.
Change in Aα-Val^360 levels following stimulation of neutrophils at 2.5 million/ml with fMLP at 0, 0.1,1,10 μM fMLP with fibrinogen (550 nM) for 15 minutes; n=3.
To determine maximal stimulation a potent stimulator of neutrophils, Cal, [11] was titrated out from 0-2.4 μM and specific proteinase fibrinogen-cleavage product measured.
To assess a more physiological stimulus, neutrophils were then incubated with N-formylmethionine-leucyl-phenylalanine (fMLP).

[4] = target: Porcine Pancreatic Elastase (Sus scrofa, UniProt P00772); assay: enzyme kinetics: SlaaapN cleavage by PPE after incubation with AAT; type: biochemical
Sequence of Porcine Pancreatic Elastase (P00772 27-266): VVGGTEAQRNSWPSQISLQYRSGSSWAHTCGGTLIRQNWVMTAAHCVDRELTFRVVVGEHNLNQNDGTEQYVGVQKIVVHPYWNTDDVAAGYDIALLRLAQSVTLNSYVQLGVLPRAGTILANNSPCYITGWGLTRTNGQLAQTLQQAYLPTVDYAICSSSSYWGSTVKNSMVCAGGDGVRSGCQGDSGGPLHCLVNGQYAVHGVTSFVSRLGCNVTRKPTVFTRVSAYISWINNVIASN

[5] = simple linear regression, control fixed at 100%

- NE activity remaining, % of untreated (Aα-Val360) ([1]; alvelestat 10 nM): 60.1%
- NE activity remaining, % of untreated (Aα-Val360) ([1]; alvelestat 1000 nM): 27.4%
- inhibition at 1 µM ([1]; read-out: inhibition (suppression) of NE activity): 72.6%
- molar ratio of inhibitor required to fully inhibit NE (inhibitor:NE, x:1) ([2]; SlaaapN substrate, by extrapolation): 0.87
- Slope, best-fit value (alvelestat:NE ratio vs NE enzymatic activity, FIG. 7) [2, 5]: −114.4
- X-intercept, best-fit value (alvelestat:NE ratio vs NE enzymatic activity, FIG. 7) [2, 5]: 0.8742
- alvelestat activity against NE ([2]; titrated against elastase of known concentration and activity, Prism): 88%
Molecule: Cc1c(-c2ccnn2C)cc(C(=O)NCc2ccc(S(C)(=O)=O)cn2)c(=O)n1-c1cccc(C(F)(F)F)c1 [alvelestat, 6-methyl-5-(1-methyl-1H-pyrazol-5-yl)-N-{[5-(methylsulfonyl)pyridin-2-yl]methyl}-2-oxo-1-[3-(trifluoromethyl)phenyl]-1,2-dihydropyridine-3-carboxamide]

Molecule: CSCC[C@H](NC=O)C(=O)N[C@@H](CC(C)C)C(=O)N[C@@H](Cc1ccccc1)C(=O)O [fMLP, N-formyl-L-methionyl-L-leucyl-phenylalanine]
- increase of NE activity (Aα-Val360) ([3]; 0.1 μM fMLP, neutrophils 2.5 million/ml, fibrinogen 550 nM): 11.4 nM
- further increase of NE activity (Aα-Val360) ([3]; 1 μM fMLP, relative to 0.1 μM): 7.3 nM
- increase of NE activity (Aα-Val360) ([3]; 10 μM fMLP, the values are: Aα-Val360 level (NE activity)): 35 nM

- molar concentration of AAT required to neutralise 1 Mol active PPE ([4]; SlaaapN substrate): 1.208 mol
- functional AAT activity ([4]; calculated from 1.208:1 AAT:PPE): 83%
Molecule: AAT: protective anti-proteinase alpha-1 antitrypsin, physiological inhibitor of neutrophil serine proteinases; purified batch from Athens Research & Technology
